From ChEMBL document CHEMBL1154453, “Synthesis and aldose reductase inhibitory activity of some new chromonyl-2,4-thiazolidinediones” (Eur J Med Chem, 2008)
pIC50: −log10 of the molar value.

Columns and labels:
[1] = biological target: Aldo-keto reductase family 1 member B1 (Rattus norvegicus) (UniProt P07943); assay: (§1) Inhibition of aldose reductase in Albino rat kidney assessed as decrease in NADPH concentration by spectrophotometrically
[2] = biological target: Aldo-keto reductase family 1 member B1 (Rattus norvegicus, UniProt P07943); assay: as §1

| Compound | inhibition [1] | pIC50 [2] |
| --- | --- | --- |
| CC(C)c1ccc2occ(/C=C3/SC(=O)N(CC(=O)O)C3=O)c(=O)c2c1 | 77.3% | 6.28 |
| O=C1NC(=O)/C(=C\c2coc3ccc([N+](=O)[O-])cc3c2=O)S1 | 46.7% | – |
| O=C1NC(=O)/C(=C\c2coc3ccccc3c2=O)S1 | 42.4% | – |
| O=C(O)CN1C(=O)S/C(=C/c2coc3ccc([N+](=O)[O-])cc3c2=O)C1=O | 82.4% | 6.58 |
| Cc1ccc2occ(/C=C3/SC(=O)NC3=O)c(=O)c2c1 | 52.7% | 6.03 |
| CCOC(=O)CN1C(=O)S/C(=C/c2coc3ccccc3c2=O)C1=O | 8.18% | – |
| CC(C)c1ccc2occ(/C=C3/SC(=O)NC3=O)c(=O)c2c1 | 50.8% | 6.02 |
| O=C(O)CN1C(=O)S/C(=C/c2coc3ccccc3c2=O)C1=O | 49.4% | – |
| Cc1ccc2occ(/C=C3/SC(=O)N(CC(=O)O)C3=O)c(=O)c2c1 | 61.2% | 6.09 |
| CCOC(=O)CN1C(=O)S/C(=C/c2coc3ccc(C(C)C)cc3c2=O)C1=O | 9.46% | – |
| CCOC(=O)CN1C(=O)S/C(=C/c2coc3c(C)cc(C)cc3c2=O)C1=O | 0% | – |
| Cc1cc(C)c2occ(/C=C3/SC(=O)N(CC(=O)O)C3=O)c(=O)c2c1 | 68.6% | 6.17 |
| Cc1cc(C)c2occ(/C=C3/SC(=O)NC3=O)c(=O)c2c1 | 49.7% | – |
| CCOC(=O)CN1C(=O)S/C(=C/c2coc3ccc(C)cc3c2=O)C1=O | 0% | – |
